Columns and labels:
[1] = tested on: HS-SY-II cells; test: Adherent cell line 14-day long-term proliferation assay (CellTiter-Glo); assay type: cell-based, human
Procedure: (§1) 96-well plating for 7 day assay: For each adherent cell line, plated cells in a volume of 100 μL in 96-well plates, to be treated in triplicate, either in the evening (to treat with compound the following day) or in morning (to treat with compound in the evening), to allow cells to attach to plates before compound treatment.
(§2) 6-well plates to be split for 7-14 day assay: Plated 2mL of cells at the correct density in each well of the 6-well plate. Calculated the correct density from the 96-well plate growth curve by multiplying the 96-well density by 30. The factor 30 came from growth area of the 6-well plate divided by the growth area of the 96-well plate (9.5cm^2/0.32cm^2=29.7, rounded up to 30), which corresponds to 30-fold more surface area in a 6-well vs. a 96-well plate.
(§3) Day 0: Treated with compound or DMSO by removing media and adding back either […] (for 96-well plate) or 2 mL (for 6-well plate) media with the correct dilutions of compound/DMSO. Table 1 includes an example of 96-well plate map. Plates were incubated for 96 hours.
(§4) Read one 96-well plate with CellTiter-Glo®, for a Day 0 reading (media change not necessary for this plate).
(§5) Day 4: Read one 96-well plate with CellTiter-Glo® for a Day 4 reading (media change not necessary for this plate before reading). Replaced media with fresh media containing compound on Day 4 in 96-well plates and 6-well plates.
(§6) Day 7: read final 96-well plate with CellTiter-Glo®.
(§7) Counted individual wells of 6-well plates, and replated cells to initial plating density in 96-well plates, as described above.
(§8) Repeated steps for Days 0-7 for Days 7-14 of the proliferation assay.
(§9) Particularly, approximately 12 hours before compound treatment, HS-SY-II or SW982 cells were plated at the density of 24,000 cells/well and 7,500 cells/well, respectively in 6-well plates. On day 0, cells were treated with either DMSO or compound starting at 10 μmol/L and decreasing in fourfold dilutions. On day 7, the cells in 6-well plates were trypsinized, counted by TC10 automated cell counter (Bio-Rad, Richmond, Calif.) and replated at the density of 800 cells/well and 250 cells/well for HS-SY-II and SW982, respectively in 96-well plates in triplicate. The cells were allowed to adhere to the plate overnight, and treated with either DMSO or compound as on Day 0. On days 0, 7, 11, and 14, cell viability was determined by CellTiter-Glo® Luminescent Cell Viability Assay (Promega) with EnVision 2103 Multilabel Reader (Perkin-Elmer, Wellesley, Mass.). Compound/media was changed with new one on Day 4 and 11. The ratios of the measured values on Days 7, 11, and 14 to that of day 7 were used to plot proliferation from day 7 to day 14, and to calculate the IC50 values on Day 14. […]

[2] = tested on: SW982 cells; test: as above; assay type: cell-based, human
Procedure: as §1, §2, §3, §4, §5, §6, §7, §8, §9

[3] = tested on: HS-SY-II cells; test: Gene expression changes in vitro (RT-PCR, normalized to GAPDH); assay type: cell-based, human; details: HS-SY-II in vitro culture
Procedure: ATF3, EGR1, CDKN2A and GAPDH expression were analyzed by using the TaqMan Gene Expression Assays (Life technologies, 4331182) and the TaqMan Probes (Hs00231069_ml, Hs00152928_ml, Hs00233365_ml, and Hs99999905_ml, respectively).

[4] = tested on: SW982 cells; details: SW982 in vitro culture

Structure (SMILES) | sensitivity (cell proliferation / viability) [1] | sensitivity (cell proliferation / viability) [2] | ATF3 and EGR1 expression [3] | CDKN2A expression [3] | ATF3 and EGR1 expression [4]
CCN(c1cc(-c2ccc(CN3CCOCC3)cc2)cc(C(=O)NCc2c(C)cc(C)[nH]c2=O)c1C)[C@H]1CC[C@H](N(C)C)CC1 [Compound E] | high sensitivity | did not |  |  | 
CCN(c1cc(-c2ccc(CN3CCOCC3)cc2)cc(C(=O)NCc2c(C)cc(C)[nH]c2=O)c1C)[C@H]1CC[C@H](N(C)C)CC1 [Compound C] |  |  | upregulated | Dose- and time-dependent CDKN2A upregulation | not in SW982

— patent US20220218714A1, “METHOD OF TREATING CANCER” (Epizyme, Inc., priority 2013, published 2022)
